Test results reported in patent US20250134891A1, “USE OF SOS1 INHIBITORS WITH MTOR INHIBITORS TO TREAT CANCERS” (Revolution Medicines, Inc., priority 2021, published 2025).

How the values were obtained:
[1] = system: LN229 human glioblastoma PTPN11^A72S/WT; assay: Tumor growth in vivo, LN229 PTPN11^A72S/WT glioblastoma CDX model; details: single agent; 3 mg/kg IP weekly; athymic nude mice
Method: The combinatorial effects of Compound SOS1-(C) with RM-006 (also known as RMC-6272) on tumor cell growth in a human model of PTPN11-mutant glioblastoma, LN229 PTPN11^A72S/WT. 6-7 week athymic nude mice were implanted with LN229 in 50% matrigel (10×10^6 cells/mouse) subcutaneously in the flank. Once tumors reached an average size of 200 mm^3, mice were randomized into treatment groups (n=10/group) to start the administration of test articles or control. SOS1-(C) treatment was administered daily by oral gavage and RM-006 was administered weekly by intra-peritoneal injection. Body weight and tumor volume (using calipers) was measured twice weekly until study endpoint.

[2] = system: murine pancreatic ductal adenocarcinoma PAN02 PTPN11^G503V; assay: Tumor growth in vivo, PAN02 PTPN11^G503V syngeneic model; set-up: species or system mouse; details: single agent
Method: The combinatorial effects of Compound SOS1-(C) with RM-006 (also known as RMC-6272) on tumor cell growth in vivo were evaluated in the murine pancreatic ductal adenocarcinoma PAN02 PTPN11^G503V syngeneic model using female C57BL/6J mice (6-7 weeks old). Mice were implanted with PAN02 tumor cells in PBS (5×10^6 cells/mouse) subcutaneously in the flank. Once tumors reached an average size of ˜145 mm^3, mice were randomized to treatment groups to start the administration of test articles or control. SOS1-(C) treatment was administered daily by oral gavage and RM-006 was administered weekly by intra-peritoneal injection. Body weight and tumor volumes (using calipers) were measured twice weekly until study endpoint. Regressions (R) are defined as decrease of 10% or more from initial tumor volume.

SMILES: CO[C@H]1C[C@@H]2CC[C@@H](C)[C@@](O)(O2)C(=O)C(=O)N2CCCC[C@H]2C(=O)O[C@H]([C@H](C)C[C@@H]2CC[C@@H](OC(=O)NCCOCCOCCOCCOCCOCCOCCOCCOCCC(=O)NCCS(=O)(=O)c3ccc(C(=O)N4CCOc5ccc(-c6ccc(N)nc6)cc5C4)c(C)c3F)[C@H](OC)C2)C[C@@H](O)[C@H](C)/C=C(\C)[C@@H](O)[C@@H](OC)C(=O)[C@H](C)C[C@H](C)/C=C/C=CC=C1C [RM-006]
- tumor growth inhibition (TGI) [1]: 72%
- tumor growth inhibition (TGI) ([2]; 3 mg/kg IP weekly, female C57BL/6J mice): 11%
- regressions (decrease of 10% or more from initial tumor volume) ([2]; any timepoint in this study): did not induce regressions
